Results as given in article PMC10439028, “SGLT5 is the renal transporter for 1,5-anhydroglucitol, a major player in two rare forms of neutropenia” (Cellular and Molecular Life Sciences: CMLS, 2023).
Substitutions are numbered along the chain they refer to.

Legend:
hSGLT5 Arg401His = target: T1, hSGLT5 Arg401His (Homo sapiens, UniProt A0PJK1, R401H); test: Inhibition of 10 µM 1,5-AG transport by SGLT5 variant Arg401His; format: cell-based; details: Fig. 5D
T1 construct: pUB83-hSGLT5-iso2 as well as the various SGLT5 mutants obtained were used to transduce HEK293T cells; expressed in transfected cells; host or cells: HEK293T, lentiviral transduction (pUB83)
T1 sequence (A0PJK1 1-596 R401H): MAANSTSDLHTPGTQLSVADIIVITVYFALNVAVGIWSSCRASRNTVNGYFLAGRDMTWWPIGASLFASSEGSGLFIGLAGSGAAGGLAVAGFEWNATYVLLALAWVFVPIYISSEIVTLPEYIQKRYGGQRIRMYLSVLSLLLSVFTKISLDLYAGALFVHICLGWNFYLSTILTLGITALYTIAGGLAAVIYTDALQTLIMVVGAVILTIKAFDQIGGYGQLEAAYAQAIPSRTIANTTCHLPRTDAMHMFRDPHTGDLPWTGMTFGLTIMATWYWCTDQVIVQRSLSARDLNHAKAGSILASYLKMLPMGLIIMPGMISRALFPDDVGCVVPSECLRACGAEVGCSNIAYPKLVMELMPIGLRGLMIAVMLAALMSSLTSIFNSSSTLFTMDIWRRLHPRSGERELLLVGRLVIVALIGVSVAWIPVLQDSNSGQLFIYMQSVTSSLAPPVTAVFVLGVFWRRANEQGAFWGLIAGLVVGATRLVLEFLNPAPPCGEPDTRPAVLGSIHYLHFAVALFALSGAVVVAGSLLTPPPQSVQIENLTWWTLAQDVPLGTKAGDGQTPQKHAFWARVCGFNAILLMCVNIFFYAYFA
Description: (§1) The transport experiments to study the specificity of SGLT4 or SGLT5, were performed in the presence of 10 µM U-[^14C + ^12C]-mannose (for SGLT4) or 2-[^3H + ^1H]-1,5-AG (for SGLT5) and increasing concentrations of various sugars tested. The transport experiments to study the inhibition of empagliflozin, dapagliflozin or remogliflozin, on the transport of 1,5-AG by SGLT5 or its variants were performed in the presence of 10 µM 2-[^3H + ^1H]-1,5-AG and increasing concentrations of the various gliflozins tested.
(§2) SGLT5 mutants were created using the quick-change site directed mutagenesis method that enables effective mutagenesis without subcloning of the amplified PCR products. Complementary primer pairs carrying the desired replacements (Supplementary Table 3) were designed using an online tool (https://www.agilent.com/store/primerDesignProgram.jsp). The PCR protocol was carried out following the manufacturer instructions regarding the KOD HOT Start polymerase kit (TOYOBO™, Novagen). The amplified DNA was cleaned-up from the reactions constituents using the GeneJET PCR purification Kit (Thermo Scientific™) and the size of the DNA fragment were verified by DNA agarose-gel electrophoresis. […]

hSGLT5 Ala522Val = target: T2, hSGLT5 Ala522Val (Homo sapiens, UniProt A0PJK1, A522V); test: Inhibition of 10 µM 1,5-AG transport by SGLT5 variant Ala522Val; format: cell-based; details: Fig. 5D
T2 construct: pUB83-hSGLT5-iso2 as well as the various SGLT5 mutants obtained were used to transduce HEK293T cells; expressed in transfected cells; host or cells: HEK293T, lentiviral transduction (pUB83)
T2 sequence (A0PJK1 1-596 A522V): T1 sequence (A0PJK1 1-596 R401H) with H401R, A522V
Description: as §1, §2

For `OC[C@H]1O[C@@H](c2ccc(Cl)c(Cc3ccc(O[C@H]4CCOC4)cc3)c2)[C@H](O)[C@@H](O)[C@@H]1O` [empagliflozin], the “effect of mutation on concentration of empagliflozin needed to inhibit SGLT5” value (hSGLT5 Arg401His) was “did not affect significantly” and the “effect of mutation on concentration of empagliflozin needed to inhibit SGLT5” value (hSGLT5 Ala522Val) was “did not affect significantly”.
